One compound from patent US20170105999A1, “METHOD FOR TREATING DRUG RESISTANT CANCER” (NATIONAL YANG MING UNIVERSITY, priority 2014, published 2017) can be followed below.

In experiment [1] the test system is signet ring cell carcinoma. Briefly: Case study, signet ring cell carcinoma patient. The format is in vivo, human. The following applies: person; prochlorperazine with several kinds of chemotherapy; last followed-up CT.
For experiment [2], the system named is A549 cells. Briefly: Senescence, β-galactosidase (SA-β-Gal) activity. The following applies: A549, 24 hours; 1 μM prochlorperazine, 50 μM resveratrol as positive control. In kind it is cell-based. An excerpt: EMT also plays a critical role in the regulation of cancer sternness. EMT is characterized by enhanced cell migration and invasion.
Experiment [3] relates to NCI-H441 cells expressing firefly luciferase. Nature of the experiment: NCI-H441 firefly luciferase tail vein tumor model, drug combination test. In kind it is in vivo, mice. The following applies: prochlorperazine 1 mg/kg + pemetrexed 1 mg/kg; p<0.05. The method, then:
In the first drug combination test, NCI-H441 cells expressing firefly luciferase (6×10^5 cells/injection) were injected into NOD/SCID mice (4-6 week of age) via the lateral tail vein for tumor establishment. […] Tumor burden from different groups were recorded by caliper. The change in tumor size was expressed as in fold change and plotted over time. Subsequently, we performed another set of drug combination test. […] For lung adenocarcinoma, the standard drug combination is pemetrexed and cisplatin whereas are used gemcitabine and cisplatin for lung squamous carcinoma. […] CL97 cancer cells (1.5×10^6 cells per injection) were injected subcutaneously into NOD/SCID mice to establish in viva tumor model.
In the drug combination test ([…]), NCI-H441 cells expressing firefly luciferase ([…] cells/injection) were injected into NOD/SCID mice (4-6 week of age) via the lateral tail vein for tumor establishment.

In experiment [4] the test system is H441. Briefly: Side population analysis by flow cytometry (Hoechst 33342). The format is cell-based, human. The following applies: H441, adenocarcinoma. On the procedure: Single-cell suspensions of cells were detached from dishes with Trypsin-EDTA (Invitrogen) and suspended at 1×10^6 cells/mL in Hank's balanced salt solution ([…]) supplemented with 3% fetal calf serum and 10 mM Hepes. These cells were then incubated at 37° C. for 90 minutes with 20 μg/mL Hoechst 33342 (Sigma Chemical, St. Louis, Mo.). […] After 90 minutes incubation with indicated drugs, the cells were centrifuged immediately for 5 minutes at 300 g and 4° C. and resuspended in ice-cold HBSS, The cells were kept on ice to inhibit efflux of the Hoechst dye, and 1 μg/mL propidium iodide (PI, BD) were added to discriminate dead cells. Finally, these cells were filtered through a 40 μm cell strainer (BD) to obtain single-suspension cells. Cell dual-wavelength analysis and purification were performed on a dual-laser FACS Vantage SE (BD). Hoechst 33342 can be excited at 355 nm UV light and emitted blue fluorescence with a 450/20 band-pass (BP) filter and red fluorescence with a 675 nm edge filter long-pass (EFLP). […]
A549, A549-ON, CL97, CL141, HCC827, and H441 were lung adenocarcinoma cell lines. […] Cell viability was determined by SRB assay. […] To determine whether side population (SP) cells, which represent a cell population with CSC characteristics, exist in NSCLC cell lines, we stained the cells with the fluorescent dye, Hoechst 33342, and analyzed the cells with flow cytometry.
A general note: Flow cytometry measures light scatter and fluorescence of single cells or particles in a stream.

Experiment [5] deals with U87MG. Briefly: Tumor spheroid (sphere formation) assay. The following applies: brain cancer. The format is cell-based.
Experiment [6] concerns CL141 spheres. Nature of the experiment: Cytotoxicity at sphere cells, Trypan Blue Exclusion method. In kind it is cell-based. The following applies: read-out: IC50 for prochlorperazine metabolites.
The subject of experiment [7] is H441. Briefly: Tumor spheroid (sphere formation) assay. The following applies: H441, adenocarcinoma. In kind it is cell-based, human.
Experiment [8] has as its system H1299. Briefly: Tumor spheroid (sphere formation) assay.
Method: In brief, single cells were plated in 6-well ultralow attachment plates (Coming Inc.) at a density of 2,000 cells/mL in tumor spheroid culture medium, DMEM/F12 supplemented with 1% N2 Supplement (Invitrogen), 10 ng/mL basic fibroblast growth factor (Sigma-Aldrich), 10 ng/mL epidermal growth factor (Invitrogen) with 1% penicillin/streptomycin (Invitrogen) at 37° C. in a humidified atmosphere of 95% air and 5% CO2. Cells were cultured twice per week. When passaged, tumor spheres were harvested. Spheroids were dissociated with TrypLE™ (Invitrogen). Spheroids cell counting using the Trypan Blue Exclusion method.
Experiment [9] relates to CL97. Nature of the experiment: CL97 (adenocarcinoma) tumor-bearing NOD/SCID mice, standard regimen combination. The format is in vivo.
Experiment [10] relates to CL152. Nature of the experiment: Clonogenic assay. In kind it is cell-based. The following applies: CL152, squamous cell carcinoma. On the procedure: (§1) Tested cells were seeded respectively in 6 well plates with 10^4 cells per well for 14 days. […] After the treatments, cells were washed with PBS, and the colonies were fixed with fix solution (methanol: acetic acid=3:1) and stained with 0.5% crystal violet in methanol. After removing the crystal violet carefully and rinse with tap water, the colonies were counted manually.

Experiment [11] deals with H1299. Nature of the experiment: Clonogenic assay. The format is cell-based. The following applies: H1299, large cell carcinoma. On the procedure:
as §1

In experiment [12] the test system is CL97. Nature of the experiment: Clonogenic assay. In kind it is cell-based. The following applies: CL97, adenocarcinoma. The method, then: as §1
The subject of experiment [13] is GBM8401. Briefly: Clonogenic assay. The format is cell-based. The following applies: GBM8401, brain cancer. On the procedure: as §1
Experiment [14] deals with A549. Briefly: Clonogenic assay. The format is cell-based. The following applies: A549, adenocarcinoma. On the procedure: as §1
Experiment [15] relates to J5. Nature of the experiment: Tumor spheroid (sphere formation) assay. In kind it is cell-based. The following applies: J5, hepatocellular carcinoma.
The test system of experiment [16] is CL152 spheres. Nature of the experiment: Cytotoxicity at sphere cells, Trypan Blue Exclusion method. The format is cell-based. The following applies: read-out: IC50 for prochlorperazine metabolites.
Experiment [17] deals with MDA-MB-231. Nature of the experiment: Tumor spheroid (sphere formation) assay. In kind it is cell-based. The following applies: MDA-MB-231, breast cancer.
Experiment [18] concerns CL152. Nature of the experiment: Cytotoxicity, sulforhodamine B (SRB) assay. The format is cell-based. The following applies: read-out: IC50 for prochlorperazine metabolites, CL152 parental cells. The method, then:
(§2) Cells were plated in 96-well plates at a density of 2000 cells per well in triplicate. The cells were treated on the third day (to ensure proper plating efficiency and vitality) to indicated agents for 48 hrs. […] Cytotoxicity was assessed using the sulforhodamine B (SRB) assay (23). Briefly, the medium was discarded, and the adherent cells were fixed by 100 μl of cold 10% trichioroacetic acid (w/v) in each well for 1 h at 4° C. After fixation, cells were stained with 100 μl/well of 0.4% (w/v, in 1% acetic acid) SRB solution for 30 min at room temperature, and then washed 5 times with 1% acetic acid. After air-drying, 100 μl of 10 mM Tris base was added to each well and the absorbance was read at 530 nm. Cytotoxicity is expressed as the percent of cells in drug treated wells relative to number of cells in the solvent only control (set to 100%). Each experiment was performed independently at least 2 times in triplicate and cytotoxicity is given as means ±SD.
(§3) A549, A549-ON, CL97, CL141, HCC827, and H441 were lung adenocarcinoma cell lines. CL152, H2170, and H226 were squamous cell carcinoma cell lines. Cell viability was determined by SRB assay. […] To determine whether side population (SP) cells, which represent a cell population with CSC characteristics, exist in NSCLC cell lines, we stained the cells with the fluorescent dye, Hoechst 33342, and analyzed the cells with flow cytometry.
(In general: Sulforhodamine B stains cellular protein and so reports cell mass.)

Experiment [19] deals with CL141. Nature of the experiment: Cytotoxicity, sulforhodamine B (SRB) assay. The format is cell-based. The following applies: read-out: IC50 for prochlorperazine metabolites, CL141 parental cells. On the procedure: as §2, §3
For experiment [20], the system named is CL141. Briefly: Clonogenic assay. The format is cell-based. The following applies: CL141, adenocarcinoma. An excerpt: […] […] After the treatments, cells were washed with PBS, and the colonies were fixed with fix solution (methanol: acetic acid=3:1) and stained with 0.5% crystal violet in methanol. After removing the crystal violet carefully and rinse with tap water, the colonies were counted manually.

A word on the IC50: it is the concentration at which inhibition is half-maximal. Consider `CN1CCN(CCCN2c3ccccc3Sc3ccc(Cl)cc32)CC1` [prochlorperazine], for which the “tumor on CT” value in experiment [1] is listed as “tumor was stable”. In addition, the “β-galactosidase activity (senescence)” value in experiment [2] was “increased β-galactosidase activity”. In addition, the “tumor inhibitory effect, combination with pemetrexed” value in experiment [3] is “significantly better tumor inhibitory effect than any other groups”. The compound also came in with a Side population in [4] of less than 5 µM. In addition, the Sphere formation in experiment [5] was 10 to 15 µM; in experiment [7] it was 0 to 2.5 µM; in experiment [8] (H1299, large cell carcinoma), 0 to 5 µM; in [15], more than 5 µM; in experiment [17], 5 to 10 µM. The half-inhibitory concentration (IC50) in [6] was less than 5 µM; in experiment [16] it was less than 5 µM; in experiment [18] it was 10 to 20 µM; in [19], 10 to 20 µM. Besides, the sphere-forming ability entry in experiment [8] (H1299) was “suppressed the sphere-forming ability”. The “spheres number, combination with cisplatin” value in experiment [8] (H1299, combination with cisplatin vs prochlorperazine or cisplatin alone) is on record as “lower spheres number”. Besides, the “tumor growth, prochlorperazine alone” value in [9] (5 mg/kg) is listed as “could inhibit tumor growth”. Further, the “tumor growth, standard treatment combined with prochlorperazine” value in experiment [9] (50 mg/kg pemetrexed + 3 mg/kg cisplatin + 5 mg/kg prochlorperazine) is “more significantly inhibitory effect of tumor growth than other treatments”. The Clonogenic assay was 5 to 10 µM in [10]; 5 to 10 µM in experiment [11]; 5 to 10 µM in [12]; 3.33 to 10 µM in experiment [13]; 5 to 10 µM in [14]; 5 to 10 µM in [20].
